Experimental data taken from US10131652B2, “Pyrimidinyloxy benzene derivatives as herbicides” (E. I. DU PONT DE NEMOURS AND COMPANY, priority 2014, dated 2018).

Key:
Assay in all cases: Test D pre-/postemergence plant response
Assay type in all cases: in vivo
[1] = tested on: Italian ryegrass (Lolium multiflorum); details: Postemergence
Summary of the method: (§1)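 Seeds sown in loam–sand blend got preemergence sprays of test chemicals in a non-phytotoxic solvent with surfactant; postemergence sprays went on plants at 1- to 4-leaf stage (2 to 18 cm) in peat/vermiculite medium. After 13 to 15 days in greenhouse, visual injury versus controls scored 0 (no effect) to 100 (complete control).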

[2] = tested on: barnyardgrass (Echinochloa crus-galli); details: Postemergence; for Plant response rating, Barnyardgrass: scale 0 to 100, 0 no effect, 100 complete control
Summary of the method: as §1

[3] = tested on: blackgrass (Alopecurus myosuroides); details: Postemergence; for Plant response rating, Blackgrass: scale 0 to 100, 0 no effect, 100 complete control
Summary of the method: as §1

[4] = tested on: corn (Zea mays); details: Postemergence; for Plant response rating, Corn: scale 0 to 100, 0 no effect, 100 complete control
Summary of the method: as §1

[5] = tested on: galium (catchweed bedstraw, Galium aparine); details: Postemergence; for Plant response rating, Galium: scale 0 to 100, 0 no effect, 100 complete control
Summary of the method: as §1

[6] = tested on: giant foxtail (Setaria faberii); details: Postemergence; for Plant response rating, Foxtail, Giant: scale 0 to 100, 0 no effect, 100 complete control
Summary of the method: as §1

[7] = tested on: johnsongrass (Sorghum halepense); details: Postemergence; for Plant response rating, Johnsongrass: scale 0 to 100, 0 no effect, 100 complete control
Summary of the method: as §1

[8] = tested on: lambsquarters (Chenopodium album); details: Postemergence
Summary of the method: as §1

[9] = tested on: large (Lg) crabgrass (Digitaria sanguinalis); details: Postemergence; for Plant response rating, Crabgrass, Large: scale 0 to 100, 0 no effect, 100 complete control
Summary of the method: as §1

[10] = tested on: morningglory (Ipomoea coccinea); details: Postemergence
Summary of the method: as §1

[11] = tested on: oilseed rape (Brassica napus); details: Postemergence
Summary of the method: as §1

[12] = tested on: pigweed (Amaranthus retroflexus); details: Postemergence
Summary of the method: as §1

[13] = tested on: ragweed (common ragweed, Ambrosia elatior); details: Postemergence
Summary of the method: as §1

[14] = tested on: soybean (Glycine max); details: Postemergence
Summary of the method: as §1

[15] = tested on: velvetleaf (Abutilon theophrasti); details: Postemergence
Summary of the method: as §1

[16] = tested on: waterhemp (common waterhemp, Amaranthus rudis); details: Postemergence
Summary of the method: as §1

[17] = tested on: winter wheat (Triticum aestivum); details: Postemergence
Summary of the method: as §1

[18] = tested on: yellow nutsedge (Cyperus esculentus); details: Postemergence
Summary of the method: as §1

[19] = 31 g ai/ha, scale 0 to 100 (0 no effect, 100 complete control)
[20] = 62 g ai/ha, scale 0 to 100, 0 no effect, 100 complete control
[21] = 125 g ai/ha, scale 0 to 100, 0 no effect, 100 complete control

In the case of `CC(F)(F)c1cc(-c2ccccc2Oc2ncc(Cl)cn2)on1` [Compound 178], the “Plant response rating (scale 0 to 100), Ryegrass, Italian” value ([1]; 16 g ai/ha) was 0, the “Ryegrass, Italian plant response rating” value [1, 19] was 0 and the “Ryegrass, Italian plant response rating” value [1, 20] was 5. For the same compound, the “Plant response rating, Ryegrass, Italian” value [1, 21] was 5, the “Plant response rating (scale 0 to 100), Barnyardgrass” value ([2]; 16 g ai/ha) was 10 and the “Barnyardgrass plant response rating” value [2, 19] was 15. For the same compound, the “Plant response rating, Barnyardgrass” value ([2]; 62 g ai/ha) was 10, the “Plant response rating, Barnyardgrass” value ([2]; 125 g ai/ha) was 20 and the “Plant response rating (scale 0 to 100), Blackgrass” value ([3]; 16 g ai/ha) was 0. For the same compound, the “Blackgrass plant response rating” value [3, 19] was 5, the “Plant response rating, Blackgrass” value ([3]; 62 g ai/ha) was 10 and the “Plant response rating, Blackgrass” value ([3]; 125 g ai/ha) was 15. The “Plant response rating (scale 0 to 100), Corn” value ([4]; 16 g ai/ha) was 0, the “Corn plant response rating” value [4, 19] was 5 and the “Plant response rating, Corn” value ([4]; 62 g ai/ha) was 5. The “Plant response rating, Corn” value ([4]; 125 g ai/ha) was 10, the “Plant response rating (scale 0 to 100), Galium” value ([5]; 16 g ai/ha) was 75 and the “Galium plant response rating” value [5, 19] was 80. The “Plant response rating, Galium” value ([5]; 62 g ai/ha) was 98, the “Plant response rating, Galium” value ([5]; 125 g ai/ha) was 85 and the “Plant response rating (scale 0 to 100), Foxtail, Giant” value ([6]; 16 g ai/ha) was 0. For the same compound, the “Foxtail, Giant plant response rating” value [6, 19] was 5, the “Plant response rating, Foxtail, Giant” value ([6]; 62 g ai/ha) was 5 and the “Plant response rating, Foxtail, Giant” value ([6]; 125 g ai/ha) was 25. For the same compound, the “Plant response rating (scale 0 to 100), Johnsongrass” value ([7]; 16 g ai/ha) was 10, the “Johnsongrass plant response rating” value [7, 19] was 10 and the “Plant response rating, Johnsongrass” value ([7]; 62 g ai/ha) was 15. The “Plant response rating, Johnsongrass” value ([7]; 125 g ai/ha) was 10, the “Plant response rating (scale 0 to 100), Lambsquarters” value ([8]; 16 g ai/ha) was 25 and the “Lambsquarters plant response rating” value [8, 19] was 70. For the same compound, the “Lambsquarters plant response rating” value [8, 20] was 75, the “Plant response rating, Lambsquarters” value [8, 21] was 90 and the “Plant response rating (scale 0 to 100), Crabgrass, Large” value ([9]; 16 g ai/ha) was 5. The “Crabgrass, Large plant response rating” value [9, 19] was 10, the “Plant response rating, Crabgrass, Large” value ([9]; 62 g ai/ha) was 20 and the “Plant response rating, Crabgrass, Large” value ([9]; 125 g ai/ha) was 15. For the same compound, the “Plant response rating (scale 0 to 100), Morningglory” value ([10]; 16 g ai/ha) was 70, the “Morningglory plant response rating” value [10, 19] was 100 and the “Morningglory plant response rating” value [10, 20] was 100. For the same compound, the “Plant response rating, Morningglory” value [10, 21] was 90, the “Plant response rating (scale 0 to 100), Oilseed Rape” value ([11]; 16 g ai/ha) was 35 and the “Oilseed Rape plant response rating” value [11, 19] was 80. The “Oilseed Rape plant response rating” value [11, 20] was 80, the “Plant response rating, Oilseed Rape” value [11, 21] was 95 and the “Plant response rating (scale 0 to 100), Pigweed” value ([12]; 16 g ai/ha) was 80. The “Pigweed plant response rating” value [12, 19] was 85, the “Pigweed plant response rating” value [12, 20] was 85 and the “Plant response rating, Pigweed” value [12, 21] was 90. For the same compound, the “Plant response rating (scale 0 to 100), Ragweed” value ([13]; 16 g ai/ha) was 5, the “Ragweed plant response rating” value [13, 19] was 5 and the “Ragweed plant response rating” value [13, 20] was 20. For the same compound, the “Plant response rating, Ragweed” value [13, 21] was 35, the “Plant response rating (scale 0 to 100), Soybean” value ([14]; 16 g ai/ha) was 15 and the “Soybean plant response rating” value [14, 19] was 35. For the same compound, the “Soybean plant response rating” value [14, 20] was 35, the “Plant response rating, Soybean” value [14, 21] was 45 and the “Plant response rating (scale 0 to 100), Velvetleaf” value ([15]; 16 g ai/ha) was 60. The “Velvetleaf plant response rating” value [15, 19] was 40, the “Velvetleaf plant response rating” value [15, 20] was 60 and the “Plant response rating, Velvetleaf” value [15, 21] was 75. The “Plant response rating (scale 0 to 100), Waterhemp” value ([16]; 16 g ai/ha) was 70, the “Waterhemp plant response rating” value [16, 19] was 80 and the “Waterhemp plant response rating” value [16, 20] was 85. For the same compound, the “Plant response rating, Waterhemp” value [16, 21] was 90, the “Plant response rating (scale 0 to 100), Wheat” value ([17]; 16 g ai/ha) was 0 and the “Wheat plant response rating” value [17, 19] was 5. The “Wheat plant response rating” value [17, 20] was 5, the “Plant response rating, Wheat” value [17, 21] was 10 and the “Plant response rating (scale 0 to 100), Nutsedge, Yellow” value ([18]; 16 g ai/ha) was 5. For the same compound, the “Nutsedge, Yellow plant response rating” value [18, 19] was 5, the “Nutsedge, Yellow plant response rating” value [18, 20] was 10 and the “Plant response rating, Nutsedge, Yellow” value [18, 21] was 5.
